Laboratory results reported in patent publication US7388070B1, “Structure-based approach to design of inhibitors of protein-processivity factor interactions” (priority 1999, dated 2008).
pIC50: −log10 of the molar value.

Assays:
[1] = CD spectroscopy, helicity from ellipticity at 222 nm; type: physicochemical; conditions: calculated from ellipticity values at 222 nm from CD measurements
Description: CD spectroscopy was performed in order to determine if the peptides with the least inhibitory activity were altered structurally. […] Therefore, the lack of inhibitory activity of these two mutants may be at least in part due to alterations in structure.
Lyophilized peptides were resuspended in 10 mM KF and adjusted to pH 8 with KOH. Spectra were recorded at the indicated peptide concentrations with an Aviv 62DS SpectroPolarimeter at 0° C. in a 0.1 cm pathlength cuvette. Wavelength scans were recorded at 1 nm intervals with a 5 second averaging time, and 5 to 10 scans were averaged. Peptide concentrations were determined by quantitative amino acid analysis. Unfolding curves were obtained by monitoring mean residue ellipticity at 222 nm as a function of the concentration of guanidine-HCl and temperature.

[2] = target: T1, HSV Pol and UL42 (Human herpesvirus 1, UniProt P10226); assay: Inhibition of UL42-mediated long-chain DNA synthesis (polymerase assay, poly(dA)/oligo(dT) primer/template); type: biochemical
T1 construct: made in house; host or cells: insect cells infected with recombinant baculoviruses
T1 sequence (P10226 whole entry): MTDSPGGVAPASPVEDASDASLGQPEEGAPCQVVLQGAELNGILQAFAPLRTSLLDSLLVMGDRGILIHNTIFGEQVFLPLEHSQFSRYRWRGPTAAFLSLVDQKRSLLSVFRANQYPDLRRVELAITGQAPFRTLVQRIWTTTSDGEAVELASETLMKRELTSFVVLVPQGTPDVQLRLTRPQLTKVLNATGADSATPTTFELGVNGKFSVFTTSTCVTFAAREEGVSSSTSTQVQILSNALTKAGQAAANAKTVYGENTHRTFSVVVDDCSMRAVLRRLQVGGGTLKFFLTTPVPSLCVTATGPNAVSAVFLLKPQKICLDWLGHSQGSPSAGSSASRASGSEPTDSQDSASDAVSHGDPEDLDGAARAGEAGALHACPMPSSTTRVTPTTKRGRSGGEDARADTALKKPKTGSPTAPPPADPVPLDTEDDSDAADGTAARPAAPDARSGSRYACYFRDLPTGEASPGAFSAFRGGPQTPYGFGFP
Excerpt: To perform structure-activity studies, “alanine scan” mutants of peptide E, in which each non-alanine residue was individually converted to an alanine, were synthesized and tested for their ability to inhibit long-chain DNA synthesis by Pol and UTL42. A poly(dA)/oligo(dT15) template/primer was employed. On this primer/template, Pol alone adds only one or two bases, but when UL42 is present, longer DNA products are formed. DNA products greater than 18 bases were quantified at varying peptide concentrations and expressed as a percentage of products formed by Pol/UL42 in the presence of vehicle control.
Reaction mixtures contained 50 mM Tris-Cl (pH 7.6), 100 mM (NH4)2SO4, 3 mM MgCl2, 0.1 mM EDTA, 1 mM dithiothreitol, 0.1 μg BSA, 4% glycerol, 0.25 μg of poly(dA)-oligo(dT) primer/template, […] [^32P]-TTP (5 Ci/mMol), 100 fmol of HSV Pol, 200 fmol of UL42 and varying concentrations of peptide inhibitors in a final volume of 25 μL. Reactions were carried out at 37° C. for 5 to 10 minutes. Reactions were stopped by placing them on ice and adding 5 μL of alkaline loading buffer (2 mM EDTA, 50 mM NaOH, 2.5% glycerol, 0.025% bromcresol green) and were then loaded onto a 4% alkaline agarose gel. Gels were dried overnight and used to expose film and phosphoresence screens. Because Pol alone added only 1-2 nucleotides to the 15 base primer, newly synthesized DNA larger than 18 bases was defined as long-chain and quantified using a Molecular Dynamics Phosphorimager.

Compound	% Helicity [1] [%]	pIC50 [2]
CSCC[C@H](NC(=O)[C@H](CCCNC(=N)N)NC(=O)[C@H](CCCNC(=N)N)NC(=O)[C@@H](NC(=O)[C@H](CCC(=O)O)NC(=O)[C@H](CCC(=O)O)NC(=O)[C@H](C)NC(=O)[C@@H](NC(=O)[C@H](C)NC(=O)CNC(=O)[C@H](C)NC(=O)CNC(=O)[C@@H](NC(=O)[C@H](C)NC(=O)CNC(=O)[C@H](Cc1ccccc1)NC(=O)CNC(=O)[C@H](C)NC(=O)[C@H](C)NC(=O)[C@H](CCCNC(=N)N)NC(=O)[C@H](CC(C)C)NC(=O)[C@H](CCCNC(=N)N)NC(=O)[C@H](C)NC(=O)[C@H](C)NC(=O)[C@@H](NC(=O)[C@H](CC(=O)O)NC(=O)[C@H](CC(=O)O)NC(C)=O)C(C)C)C(C)C)[C@@H](C)O)[C@@H](C)O)C(=O)N[C@@H](CC(C)C)C(=O)N[C@@H](Cc1c[nH]cn1)C(=O)N[C@@H](CCCNC(=N)N)C(=O)N[C@@H](C)C(=O)N[C@@H](Cc1ccccc1)C(=O)N[C@@H](CC(=O)O)C(=O)N[C@H](C(=O)N[C@@H](CC(C)C)C(=O)N[C@@H](C)C(=O)O)[C@@H](C)O [Peptide A]	20	
CSCC[C@H](NC(=O)[C@H](CCCNC(=N)N)NC(=O)[C@H](CCCNC(=N)N)NC(=O)[C@@H](NC(=O)[C@H](CCC(=O)O)NC(=O)[C@H](C)NC(=O)[C@H](C)NC(=O)[C@@H](NC(=O)[C@H](C)N)[C@@H](C)O)[C@@H](C)O)C(=O)N[C@@H](CC(C)C)C(=O)N[C@@H](Cc1c[nH]cn1)C(=O)N[C@@H](CCCNC(=N)N)C(=O)N[C@@H](C)C(=O)N[C@@H](Cc1ccccc1)C(=O)N[C@@H](CC(=O)O)C(=O)N[C@H](C(=O)N[C@@H](CC(C)C)C(=O)N[C@@H](C)C(=O)O)[C@@H](C)O [Peptide E22A]		< 4.00
CSCC[C@H](NC(=O)[C@H](CCCNC(=N)N)NC(=O)[C@H](CCCNC(=N)N)NC(=O)[C@@H](NC(=O)[C@H](CCC(=O)O)NC(=O)[C@H](CCC(=O)O)NC(=O)[C@H](C)NC(=O)[C@@H](NC(=O)[C@H](C)NC(C)=O)[C@@H](C)O)[C@@H](C)O)C(=O)N[C@@H](CC(C)C)C(=O)N[C@@H](Cc1c[nH]cn1)C(=O)N[C@@H](CCCNC(=N)N)C(=O)N[C@@H](C)C(=O)N[C@@H](C)C(=O)N[C@@H](CC(=O)O)C(=O)N[C@H](C(=O)N[C@@H](CC(C)C)C(=O)N[C@@H](C)C(N)=O)[C@@H](C)O [Peptide F32A]	28	< 4.00
CSCC[C@H](NC(=O)[C@H](CCCNC(=N)N)NC(=O)[C@H](CCCNC(=N)N)NC(=O)[C@@H](NC(=O)[C@H](CCC(=O)O)NC(=O)[C@H](CCC(=O)O)NC(=O)[C@H](C)NC(=O)[C@H](C)NC(=O)[C@H](C)NC(C)=O)[C@@H](C)O)C(=O)N[C@@H](CC(C)C)C(=O)N[C@@H](Cc1c[nH]cn1)C(=O)N[C@@H](CCCNC(=N)N)C(=O)N[C@@H](C)C(=O)N[C@@H](Cc1ccccc1)C(=O)N[C@@H](CC(=O)O)C(=O)N[C@H](C(=O)N[C@@H](CC(C)C)C(=O)N[C@@H](C)C(N)=O)[C@@H](C)O [Peptide T20A]	16	< 4.00
Ac-ATAEETRRALHRAFDTLA-NH2 (N-terminus and C-terminus assumed) [Peptide M27A]		< 4.00
Ac-ATAEETRRMLARAFDTLA-NH2 (N-terminus and C-terminus assumed) [Peptide H29A]	25	< 4.00
Ac-ATAEETRRMLHAAFDTLA-NH2 (N-terminus and C-terminus assumed) [Peptide R30A]	26	< 4.00
